Results as given in PubChem BioAssay (NCI).
Several values for one entry are separate records, joined by “and”; a condition that tells them apart may be missing. Identical values can stand only once.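 Where inhibition never reached the appropriate level, the endpoint shown equals the highest concentration tested. Otherwise, values were interpolated linearly from a five-concentration, 48-hour dose response in 96-well plates. The concentration for 50% growth inhibition is given as GI50. At the TGI there is no net growth.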

How the values were obtained:
Assay in all cases: growth of human tumour cells (NCI), 48 h
MOLT-4 leukemia = system: MOLT-4 leukemia
HT29 colon = system: HT29 colon
RPMI-8226 leukemia = system: RPMI-8226 leukemia
IGROV1 ovarian = system: IGROV1 ovarian
CAKI-1 renal = system: CAKI-1 renal
U251 CNS = system: U251 CNS
SK-MEL-2 melanoma = system: SK-MEL-2 melanoma
OVCAR-4 ovarian = system: OVCAR-4 ovarian

Structure (SMILES) | GI50 (MOLT-4 leukemia) | TGI (MOLT-4 leukemia) [µM] | GI50 (HT29 colon) | TGI (HT29 colon) [µM] | GI50 (RPMI-8226 leukemia) | TGI (RPMI-8226 leukemia) [µM] | GI50 (IGROV1 ovarian) | TGI (IGROV1 ovarian) [µM] | GI50 (CAKI-1 renal) | TGI (CAKI-1 renal) [µM] | GI50 (U251 CNS) | TGI (U251 CNS) [µM] | GI50 (SK-MEL-2 melanoma) | TGI (SK-MEL-2 melanoma) | GI50 (OVCAR-4 ovarian) | TGI (OVCAR-4 ovarian)
Fc1cc2[nH]ncc2c2c3c(c(-c4cn[nH]c4C(F)(F)F)nc12)CCCC3 | 0.802 µM | 3.75 | 2.95 µM | > 100 | 1.56 µM | > 100 | 0.802 µM | 5.88 | 1.81 µM | 7.54 | 2.57 µM | > 100 | 2.07 µM | 5.67 µM |  | 
CCSCC1CC(O)(c2ccccc2)CC(c2ccc(F)cc2)O1 (stereo unspecified) | 1.66 µM | 4.14 | 1.73 µM | 3.46 | 1.95 µM | 6.46 | 2.12 µM | 5.75 | 2.42 µM | 8.16 | 1.63 µM | 3.3 | 1.79 µM | 3.53 µM | 2.69 µM | 11.5 µM
O=S(=O)(NCCCNc1nccc(-c2c(-c3ccc(O)cc3)nc3sccn23)n1)c1ccc(F)cc1 | 2.47 µM | 8.81 | 1.52 µM | 17.2 | 1.58 µM | 4.72 | 2.85 µM | 8.78 | 2.88 µM | > 100 | 2.92 µM | 12.4 | 1.18 µM | 2.81 µM | 3.36 µM | 9.92 µM
COc1ccc(C2=N[C@@H](Cc3ccccc3)C(=O)Nc3ccsc32)cc1 | 3.98 µM | 19.3 | 4.04 µM | 13.4 | 3.29 µM | 18.8 | 12.8 µM | 41 | 3.87 µM | 33.8 | 4.51 µM | 20.5 | 11.7 µM | 30 µM | 11.2 µM | 83 µM
Nc1nccc(-c2c(-c3ccc(F)cc3)ncn2C2CCNCC2)n1 | 17.8 µM and 7.16 µM | > 25 | 1.68 µM and 1.28 µM | > 25 | 12.6 µM and 7.07 µM | > 25 | 5.13 µM and 4.73 µM | > 25 | > 25 µM and 7.29 µM | > 25 | 3.67 µM and 1.95 µM | > 25 | 13.6 µM and 3.64 µM | > 25 µM and 13 µM | 1.86 µM and 2.77 µM | > 25 µM and 13.1 µM
CC(C)(C)c1ccc(S(=O)(=O)Oc2ccc3c4c(c(=O)oc3c2)CCCCC4)cc1 | > 100 µM | > 100 | 7.95 µM | > 100 | 3.18 µM | > 100 | 14.9 µM | 48.5 | 10.9 µM | 43.5 | 12.5 µM | 54.4 | 16.5 µM | 55.6 µM | 8.13 µM | 40.7 µM
COc1ccc(/C=C(/C#N)C(N)=O)c(OC)c1 |  | > 100 |  | > 100 |  | > 100 |  | > 100 |  | > 100 |  | > 100 |  | > 100 µM |  | > 100 µM
CS(=O)(=O)Nc1cncc(-c2ccc3ncnc(Nc4ccc(F)c(Cl)c4)c3c2)c1 | 1.6 µM | 4.65 | 2.43 µM | 11.4 | 2.24 µM | 5.42 | 0.34 µM | 1.91 |  |  | 3.03 µM | 15.2 | 1.5 µM | 3.79 µM | 4.96 µM | 96.6 µM
CCN1C(=S)N(c2ccccc2)C2NC(=S)N(/N=C/C=C/c3ccccc3OC)C21 (stereo unspecified) | 0.548 µM | > 100 | 0.329 µM |  | 0.377 µM | > 24.8 | 0.606 µM | > 100 | 0.298 µM | > 100 | 0.393 µM | > 100 | 0.612 µM | > 100 µM | 0.839 µM | > 100 µM
Cc1cc(S(=O)(=O)Nc2nc3ccccc3o2)c(SCc2ccccc2)cc1Cl | 24.4 µM | > 100 | 33.8 µM | > 100 | 11.2 µM | 30.1 | 48.9 µM | > 100 | 19.6 µM | 47.3 | 16.1 µM | 31 | 48.6 µM | > 100 µM | 25.4 µM | 67.9 µM
c1ccc2sc(SCCSc3nc4ccccc4s3)nc2c1 |  |  |  | > 100 |  | > 100 |  | > 100 |  | > 100 |  | > 100 |  | > 100 µM |  | > 100 µM
O=C(CC(Cl)=C(Cl)Cl)Nc1ccccc1 | > 100 µM | > 100 | > 100 µM | > 100 | > 100 µM | > 100 | > 100 µM | > 100 |  |  | > 100 µM | > 100 | > 100 µM | > 100 µM | > 100 µM | > 100 µM
Cc1cc(O)c(=O)cc2c1C[C@H]1CC(C)(C)/C=C/C[C@]3(C)Oc4cc(=O)c(O)cc(C)c4C[C@H]3C[C@H](O)[C@@]1(C)O2 |  |  | < 0.01 µM | > 100 | 0.0185 µM | 2.97 | 0.025 µM | 7.46 | 0.0225 µM |  |  |  |  |  | 0.0172 µM | > 100 µM
CC(C)(Br)C(=O)N1CCN(C(c2ccccc2)c2ccccc2)CC1 |  | > 100 |  | > 100 |  |  |  | > 100 |  | > 100 |  | > 100 |  | > 100 µM |  | > 100 µM
COc1ccc(C2CC(c3cccc(Nc4ccnc5cc(Cl)ccc45)c3)=NN2C=O)cc1 (stereo unspecified) | 0.487 µM | > 100 | 0.349 µM | 1.54 | 3.64 µM | > 24 | 1.9 µM | > 100 | 0.394 µM | 29.2 | 0.435 µM | 3.98 | 0.457 µM | 6.41 µM | 0.94 µM | > 100 µM
O=Nc1ccc(O)c(=O)cc1 | 0.821 µM | 20.8 | 2.45 µM | 10.7 | 1.05 µM | 3.97 | 3.77 µM | 11.3 | 0.936 µM | 5.8 | 3.08 µM | 11.6 | 2.61 µM | 5.89 µM | 1.71 µM | 4.83 µM
COc1cc(Nc2nc3cc(N)cc(N)c3nc2-c2ccccc2)cc(OC)c1OC | 2.57 µM | 18 |  | 35 | 12.4 µM | 32.4 | 15.7 µM | 58.2 | 15.5 µM | 48.5 | 24.6 µM | > 100 | 15.9 µM | 35.2 µM | 0.0313 µM | 0.892 µM
